Measurements as given in ChEMBL document CHEMBL2073810, “Mrp2 is essential for estradiol-17beta(beta-D-glucuronide)-induced cholestasis in rats” (Hepatology, 2000).

Assays:
Type in all cases: functional, cell membranes, Membrane vesicle
Bile salt export pump [1] = target: T1, Bile salt export pump (Rattus norvegicus, UniProt O70127); assay: TP_TRANSPORTER: inhibition of Taurocholate uptake (Taurochorate: 1 uM, E217betaG: 50 uM) in membrane vesicles from Bsep-expressing Sf9 cells; settings: sf9, 50 µM
T1 sequence (O70127 whole entry): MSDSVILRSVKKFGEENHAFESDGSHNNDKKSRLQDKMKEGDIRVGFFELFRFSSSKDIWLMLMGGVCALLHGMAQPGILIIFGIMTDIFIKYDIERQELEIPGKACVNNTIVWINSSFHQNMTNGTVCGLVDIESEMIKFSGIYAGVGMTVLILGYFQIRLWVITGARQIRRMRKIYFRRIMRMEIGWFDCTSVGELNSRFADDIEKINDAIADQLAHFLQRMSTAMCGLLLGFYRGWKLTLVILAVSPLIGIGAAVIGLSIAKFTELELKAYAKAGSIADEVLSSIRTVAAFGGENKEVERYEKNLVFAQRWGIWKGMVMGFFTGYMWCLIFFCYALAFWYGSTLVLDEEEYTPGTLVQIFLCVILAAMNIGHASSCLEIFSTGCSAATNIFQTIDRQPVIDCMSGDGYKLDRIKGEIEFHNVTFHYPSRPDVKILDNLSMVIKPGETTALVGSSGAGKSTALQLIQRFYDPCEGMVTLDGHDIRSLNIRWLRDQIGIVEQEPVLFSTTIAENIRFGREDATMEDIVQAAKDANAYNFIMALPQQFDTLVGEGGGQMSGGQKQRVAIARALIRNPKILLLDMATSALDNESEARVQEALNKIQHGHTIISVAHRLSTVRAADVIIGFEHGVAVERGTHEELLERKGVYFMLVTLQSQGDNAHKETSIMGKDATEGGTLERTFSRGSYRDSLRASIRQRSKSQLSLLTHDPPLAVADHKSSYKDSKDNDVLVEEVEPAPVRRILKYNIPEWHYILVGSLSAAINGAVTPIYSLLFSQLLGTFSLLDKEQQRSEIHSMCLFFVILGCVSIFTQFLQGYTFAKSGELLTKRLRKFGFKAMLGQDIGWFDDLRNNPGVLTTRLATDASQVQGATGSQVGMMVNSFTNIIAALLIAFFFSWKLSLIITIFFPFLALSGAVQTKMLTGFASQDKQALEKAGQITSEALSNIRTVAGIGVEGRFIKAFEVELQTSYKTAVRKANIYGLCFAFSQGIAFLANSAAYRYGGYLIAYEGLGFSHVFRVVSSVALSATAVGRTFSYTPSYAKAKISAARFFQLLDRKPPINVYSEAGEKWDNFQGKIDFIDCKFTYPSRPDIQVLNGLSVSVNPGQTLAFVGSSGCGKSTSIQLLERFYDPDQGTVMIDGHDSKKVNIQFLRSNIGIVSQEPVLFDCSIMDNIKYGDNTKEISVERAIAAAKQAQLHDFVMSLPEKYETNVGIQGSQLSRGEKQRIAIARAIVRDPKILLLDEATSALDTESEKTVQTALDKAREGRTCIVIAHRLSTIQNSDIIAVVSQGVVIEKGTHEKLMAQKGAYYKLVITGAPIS

Bile salt export pump [2] = target: T1, Bile salt export pump; assay: TP_TRANSPORTER: inhibition of Taurocholate uptake (Taurochorate: 1uM, Ethinyl estradiol: 25 uM) in membrane vesicles from Bsep-expressing Sf9 cells; settings: sf9, 25 µM
Bile salt export pump [3] = target: T1, Bile salt export pump; assay: TP_TRANSPORTER: inhibition of Taurocholate uptake (Taurochorate: 100 uM, TLC: 10 uM) in membrane vesicles from Bsep-expressing Sf9 cells; settings: sf9, 10 µM

SMILES: C[C@]12CC[C@@H]3c4ccc(O)cc4CC[C@H]3[C@@H]1CC[C@@H]2O[C@@H]1O[C@H](C(=O)O)[C@@H](O)[C@H](O)[C@H]1O [ESTRADIOL 17B GLUCURONIDE]
- Activity (Bile salt export pump [1]): is not an inhibitor [-]

SMILES: C#C[C@]1(O)CC[C@H]2[C@@H]3CCc4cc(O)ccc4[C@H]3CC[C@@]21C [ETHINYL ESTRADIOL]
- Activity (Bile salt export pump [2]): is not an inhibitor [-]

SMILES: C[C@H](CCC(=O)NCCS(=O)(=O)O)[C@H]1CC[C@H]2[C@@H]3CC[C@@H]4C[C@H](O)CC[C@]4(C)[C@H]3CC[C@]12C [TAUROLITHOCHOLIC ACID]
- Activity (Bile salt export pump [3]): inhibitor [+]
